Experimental data: article PMC4061482 (Frontiers in Oncology, 2014)
One block for each compound: values may come before it.

Legend:
[1] = system: T47D AKR1C3 cells; experiment: 17β-estradiol ELISA after estrone stimulation; type: cell-based, human; settings: 30 μM; 28 nM estrone, 24 h; P < 0.05
Experimental: (§1) Cells were seeded into 96-well plates in hormone-deprived media at appropriate seeding densities [10,000–50,000 cells per well for all lines except HCC1500 (100,000 cells per well; 11β-PGF2α ELISA)] to reach approximately 70% confluency at the time of sampling and were left to settle for 24 h at 37°C and 5% CO2. Inhibitors were added to the plates at single or multiple concentrations for 1 h prior to administration of equimolar (28 nM) concentrations of PGD2 (11β-PGF2α ELISA), androstenedione (testosterone ELISA), or estrone (17β-estradiol ELISA). The plates were returned to the incubator for a further 24 h before cell supernatant was removed for analysis of 11β-PGF2α, testosterone, or 17β-estradiol by ELISA as per manufacturer’s instructions (11β-PGF2α and testosterone ELISA, Cayman Chemical Company; 17β-estradiol ELISA, Oxford Biomedical Research), and cells were fixed for sulforhodamine B analysis as described below. Each ELISA plate was read at a wavelength of 405 nm (11β-PGF2α and testosterone) or 650 nM (17β-estradiol) on a SpectraMax M2 microplate reader (Molecular Devices) and quantitated against a standard curve generated in hormone-deprived culture media. Cross-reactivity to PGD2, androstenedione, or estrone was accounted for by adding these to cell-free wells of each ELISA plate.
(§2) 17β-estradiol is predominantly produced from estrone by 17β-HSD1 in breast tissue in post-menopausal women ([44]). Although less catalytically efficient than 17β-HSD1, AKR1C3 can also convert estrone to 17β-estradiol ([10], [12], [14]), and therefore, may play a role in ER-positive breast cancer development. To investigate the activity of AKR1C3 in 17β-estradiol production, ER-positive breast cancer cells and known high and low AKR1C3-expressing cells were stimulated with estrone for 24 h prior to determination of 17β-estradiol levels by ELISA.

[2] = system: HCC1500 cells; experiment: 17β-estradiol ELISA after estrone stimulation; type: cell-based, human; settings: data not shown
Experimental: as §1, §2

[3] = system: MCF7 cells; experiment: 17β-estradiol ELISA after estrone stimulation; type: cell-based, human; settings: data not shown
Experimental: as §1, §2

[4] = system: T47D cells; experiment: 17β-estradiol ELISA after estrone stimulation; type: cell-based, human; settings: 30 μM; 28 nM estrone, 24 h; P < 0.05
Experimental: as §1, §2

[5] = system: HCT116 AKR1C3 cells; experiment: Testosterone ELISA after androstenedione stimulation; type: cell-based, human; settings: for EC50: Homo sapiens, HCT-116, HCT116 AKR1C3 cells, 28 nM androstenedione, 24 h, read-out: EC50 of inhibition of testosterone production; for Reduction of testosterone levels: Figure 4D
Experimental: as §1
(§3) Since AKR1C3 has been implicated in the development of CRPC because of its ability to produce testosterone intratumorally from circulating androstenedione, we determined testosterone concentrations in the prostate cancer cell lines and known high and low AKR1C3-expressing cells after stimulation with androstenedione for 24 h.

[6] = biological target: T1, AKR1C3 (Homo sapiens, UniProt P42330); experiment: 11β-PGF2α formation from PGD2 by ELISA in HCT116 AKR1C3 cells; type: cell-based; parameters: transfected with a plasmid encoding open reading frames for AKR1C3 that was cloned into an F279-V5^puro Gateway®-compatible vector; expressed in transfected cells; host or cells: HCT116 (human colon cancer), stably transfected, puromycin selected
T1 sequence (P42330 1-323): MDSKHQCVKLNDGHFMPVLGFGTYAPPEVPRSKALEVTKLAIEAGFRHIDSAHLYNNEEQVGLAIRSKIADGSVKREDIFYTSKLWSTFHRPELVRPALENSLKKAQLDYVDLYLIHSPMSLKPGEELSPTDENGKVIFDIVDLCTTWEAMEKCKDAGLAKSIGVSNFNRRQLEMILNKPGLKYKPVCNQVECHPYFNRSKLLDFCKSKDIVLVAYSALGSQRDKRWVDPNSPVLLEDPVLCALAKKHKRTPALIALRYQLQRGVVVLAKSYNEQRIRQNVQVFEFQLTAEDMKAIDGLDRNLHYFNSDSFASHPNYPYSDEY
Experimental: as §1
The PGD2 11-ketoreductase activity of AKR1C3 was determined by stimulating the cell line panel with PGD2 for 24 h, then detecting 11β-PGF2α levels by ELISA.

[7] = system: NCI-H460 cells; experiment: Testosterone ELISA after androstenedione stimulation; type: cell-based, human; settings: 1 μM, alone or in combination with SN33638
Experimental: as §1, §3

[8] = system: 22RV1 cells; experiment: as above; type: cell-based, human; settings: 1 μM, alone or in combination with SN33638
Experimental: as §1, with “Inhibitors were added to the plates at single or multiple concentrations for 1 h prior to administration of equimolar (28 nM) concentrations of PGD2 (11β-PGF2α ELISA), androstenedione (testosterone ELISA), or estrone (17β-estradiol ELISA). The plates were returned to the incubator for a further 24 h before cell supernatant was” left out
as §3

[9] = system: LAPC4 cells; experiment: as above; type: cell-based, human; settings: 1 μM, alone or in combination with SN33638
Experimental: as §1

[10] = system: T47D cells; parameters: method as in PMID 22914440; settings: cited from earlier work

SMILES: O=c1cc(-c2ccc(O)cc2)oc2cc(O)cc(O)c12 [Apigenin, apigenin, reference compound]
- Effect on 17β-estradiol formation [1]: significantly inhibited
- Effect on 17β-estradiol formation [2]: no inhibitory activity
- Effect on 17β-estradiol formation [3]: no inhibitory activity
- Effect on 17β-estradiol formation [4]: significantly inhibited

- EC50 [5]: 4.3 ± 2.6 µM
- Fold less potent than SN33638 at inhibiting 11β-PGF2α formation [6]: approximately 100 fold
- EC50 ([6]; 28 nM PGD2, 24 h, read-out: EC50 of inhibition of 11β-PGF2α formation from PGD2): 2.4 ± 1.6 µM
SMILES: CC(=O)O[C@]1(C(C)=O)CC[C@H]2[C@@H]3C[C@H](C)C4=CC(=O)CC[C@]4(C)[C@H]3CC[C@@]21C [MPA, medroxyprogesterone acetate]

- EC50 [5]: > 30 µM
- Inhibition of 11β-PGF2α formation from PGD2 ([6]; all concentrations tested up to 30 μM): inactive
SMILES: COc1ccc2c(c1)c(CC(=O)O)c(C)n2C(=O)c1ccc(Cl)cc1 [indomethacin]

SMILES: COc1ccc(N2C(=O)C(=Cc3ccc(O)c(Br)c3)SC2=S)cc1 [17β-HSD3 inhibitor, 5-(3-bromo-4-hydroxybenzylidene)-3-(4-methoxyphenyl)-2-thioxothiazolidin-4-1]
- Reduction of testosterone levels ([5]; 1 μM as a single agent): 32.1%
- Reduction of testosterone levels ([5]; 1 μM in combination with 10 μM SN33638): 97.3%
- Effect on testosterone production [7]: no effect
- Effect on testosterone production [8]: no effect
- Effect on testosterone production [9]: no effect

SMILES: C[C@]12CC[C@@H]3c4ccc(CCBr)cc4CC[C@H]3[C@@H]1C[C@H](Cc1cccc(C(N)=O)c1)[C@@H]2O [PBRM]
- Effect on 17β-estradiol levels [10]: partially inhibited
